The text below walks through data of US12679824B2 (Hoffmann-La Roche Inc., priority 2020, dated 2026).

Converted amounts (≈) assume the structure as drawn.

The subject of one assay is Acinetobacter baumannii ATCC17978. The assay can be described thus: Minimal Inhibitory Concentration (MIC) assay. It counts as cell-based. To be noted: Acinetobacter baumannii ATCC17978; CAMHB; 20 hours at 35±2° C.; lowest concentration that inhibits visible growth; read-out: ATCC 17978 MIC. As to the method: Minimal Inhibitory Concentration Protocol (MIC) Assay:
Table 2 provides the in vitro potency of the compounds of present invention obtained against the strain Acinetobacter baumannii ATCC17978, which was assessed by an MIC (Minimal Inhibitory Concentration) assay as follows.
Test compounds were prepared from 10 mM DMSO stock solutions. The top dose was diluted from 10 mM to 2.5 mM by DMSO, followed by serial 2-fold 11 points dilutions in DMSO in a master plate (Greiner, Cat No: 651201). 2 μL compounds were transferred from the master plate into a new 96-well assay plate (Costar, 3599).
The growth medium […] Mueller Hinton Broth (CAMHB) was prepared by adding 22 g powder (BD, 212322) in 1 L purified water, autoclaved, and supplemented with sterilized CaCl2) (20 mg per liter) and MgCl2 (10 mg per liter).
Vials of each of the test microorganisms were maintained frozen in the vapor phase of a liquid nitrogen freezer. Took out the bacterial strain ATCC 17978 from liquid nitrogen freezer, thawed it at room temperature, and diluted the bacterial in the CAMHB medium to achieve a final inoculum of 2×10^5 CFU/mL. 98 μL of the adjusted bacteria suspension was dispensed to the assay plate and pipetted 5 times.
Then the assay plates were incubated for 20 hours at 35±2° C. in ambient air with humidity. Following incubation, MIC (μg/mL) value, the lowest concentration of drug that inhibits visible growth of the microorganism, was recorded by visual judgment of bacterial growth through magnification mirror of MIC reader, and the assay plates were photographed with Qcount system as image raw data. Meanwhile, the OD600 of assay plates was recorded with SpectraMax Plus384 as OD raw data.
As for `CNc1ccc(-n2cc(-c3cnc(C(=O)Nc4ccc(C(=O)N5CCN(C(=O)C6(O)CCNCC6)CC5)c(Cl)c4)n3C)c(C(F)(F)F)n2)nc1.O=CO` [Example D3, N-[3-chloro-4-[4-(4-hydroxypiperidine-4-carbonyl)piperazine-1-carbonyl]phenyl]-1-methyl-5-[1-[5-(methylamino)-2-pyridyl]-3-(trifluoromethyl)pyrazol-4-yl]imidazole-2-carboxamide], the MIC is 1.16 µg/mL.
Same read-out and setting: the figure for `Cc1nn(-c2ccc(N)cn2)cc1-c1cnc(C(=O)Nc2ccc(C(=O)N3CCN(C(=O)C4CCN(C)CC4)CC3)c(Cl)c2)n1C` [Example C12, 5-[1-(5-amino-2-pyridyl)-3-methyl-pyrazol-4-yl]-N-[3-chloro-4-[4-(1-methylpiperidine-4-carbonyl)piperazine-1-carbonyl]phenyl]-1-methyl-imidazole-2-carboxamide] is 38 µg/mL (≈ 58.8 µM); for `CNc1ccc(-n2cc(-c3cnc(C(=O)Nc4ccc(C(=O)N5CCN(C(=O)[C@@H]6CCNC[C@H]6O)CC5)c(Cl)c4)n3C)c(C(F)(F)F)n2)nc1.O=CO` [Example D2] it is 1.12 µg/mL; for `CN1CCC(C(=O)N2CCN(C(=O)c3ccc(NC(=O)c4ncc(-c5cn(-c6ccc(N)nn6)nc5C(F)(F)F)n4C)cc3Cl)CC2)CC1` [Example C14, 5-[1-(6-aminopyridazin-3-yl)-3-(trifluoromethyl)pyrazol-4-yl]-N-[3-chloro-4-[4-(1-methylpiperidine-4-carbonyl)piperazine-1-carbonyl]phenyl]-1-methyl-imidazole-2-carboxamide] it is 5.09 µg/mL (≈ 7.27 µM).
The same measure, in the same setting: the figure for `COCCOc1ccc(-n2cc(-c3cnc(C(=O)Nc4ccc(C(=O)N5CCN(C(=O)C6CCNCC6)CC5)c(Cl)c4)n3C)c(C(F)(F)F)n2)nc1.O=CO` [Example A7, N-[3-chloro-4-[4-(piperidine-4-carbonyl)piperazine-1-carbonyl]phenyl]-5-[1-[5-(2-methoxyethoxy)-2-pyridyl]-3-(trifluoromethyl)pyrazol-4-yl]-1-methyl-imidazole-2-carboxamide] is 1.16 µg/mL; for `Cn1c(-c2cn(-c3ncccn3)nc2C(F)(F)F)cnc1C(=O)Nc1ccc(C(=O)N[C@H]2[C@@H]3CN(C(=O)[C@@H]4C[C@@H](O)CN4)C[C@@H]32)c(Cl)c1.O=CO` [Example F2, N-[3-chloro-4-[[(1R,5S)-3-[(2S,4R)-4-hydroxypyrrolidine-2-carbonyl]-3-azabicyclo[3.1.0]hexan-6-yl]carbamoyl]phenyl]-1-methyl-5-[1-pyrimidin-2-yl-3-(trifluoromethyl)pyrazol-4-yl]imidazole-2-carboxamide] it is 4.43 µg/mL.
The same measure, in the same setting: next, `COc1cnc(-n2cc(-c3cnc(C(=O)Nc4ccc(C(=O)N5CCN(C(=O)C6CCNCC6)CC5)c(Cl)c4)n3C)c(C(F)(F)F)n2)nc1.O=CO` [Example A4, N-[3-chloro-4-[4-(piperidine-4-carbonyl)piperazine-1-carbonyl]phenyl]-5-[1-(5-methoxypyrimidin-2-yl)-3-(trifluoromethyl)pyrazol-4-yl]-1-methyl-imidazole-2-carboxamide]: 2.19 µg/mL; `CCc1nn(-c2ccc(N)cn2)cc1-c1cnc(C(=O)Nc2ccc(C(=O)N3CCN(C(=O)C4CCN(C)CC4)CC3)c(Cl)c2)n1C` [Example C13, 5-[1-(5-amino-2-pyridyl)-3-ethyl-pyrazol-4-yl]-N-[3-chloro-4-[4-(1-methylpiperidine-4-carbonyl)piperazine-1-carbonyl]phenyl]-1-methyl-imidazole-2-carboxamide]: 16.5 µg/mL (≈ 25 µM); `CN(C)c1ccnc(-n2ncc(-c3cnc(C(=O)Nc4ccc(C(=O)N5CCN(C(=O)C6CCNCC6)CC5)c(Cl)c4)n3C)c2C(F)(F)F)n1.O=C(O)C(F)(F)F` [Example A18, N-[3-chloro-4-[4-(piperidine-4-carbonyl)piperazine-1-carbonyl]phenyl]-5-[1-[4-(dimethylamino)pyrimidin-2-yl]-5-(trifluoromethyl)pyrazol-4-yl]-1-methyl-imidazole-2-carboxamide]: 2.23 µg/mL.
Regarding `Cn1c(-c2cn(-c3ncccn3)nc2C(F)(F)F)cnc1C(=O)Nc1ccc(C(=O)N[C@H]2[C@@H]3CN(C(=O)C4CCNCC4)C[C@@H]32)c(Cl)c1.O=CO` [Example F3, N-[3-chloro-4-[[(1S,5R)-3-(piperidine-4-carbonyl)-3-azabicyclo[3.1.0]hexan-6-yl]carbamoyl]phenyl]-1-methyl-5-[1-pyrimidin-2-yl-3-(trifluoromethyl)pyrazol-4-yl]imidazole-2-carboxamide], the MIC was 4.41 µg/mL.

Still in this assay, the particulars now being: Acinetobacter baumannii, ATCC17978, 20 h, read-out: ATCC 17978 MIC.
In the case of `CNc1ccc(-n2cc(-c3cnc(C(=O)Nc4ccc(C(=O)N5CCN(C(=O)C6CCNCC6)CC5)c(Cl)c4)n3C)c(C(F)(F)F)n2)nc1` [Example D1, N-[3-chloro-4-[4-(piperidine-4-carbonyl)piperazine-1-carbonyl]phenyl]-1-methyl-5-[1-[5-(methylamino)-2-pyridyl]-3-(trifluoromethyl)pyrazol-4-yl]imidazole-2-carboxamide], the MIC was determined as 0.55 µg/mL (≈ 0.787 µM).

For a further assay, the system named is Acinetobacter baumannii ATCC17961. The assay can be described thus: 90% Growth Inhibitory Concentration (IC90) determination, antimicrobial susceptibility testing. The assay is classed as cell-based. Particulars: Acinetobacter baumannii, ATCC17961, 16 h, Acinetobacter baumannii ATCC17961; Iso-Sensitest broth; growth by optical density at 600 nm over 16h; concentration inhibiting 90% of the growth; read-out: ATCC 17961 IC90. The method in brief: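 Broth microdilution in Iso-Sensitest medium, compounds twofold diluted (e.g. 50–0.097 μM final), inoculum ~5×10^(5) CFU/ml, 35±2° C. OD600 was read every 20 min over 16 h. IC90 was derived from growth inhibition during logarithmic growth.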
On to `Cn1c(-c2cn(-c3ccc(N)cn3)nc2C(F)(F)F)cnc1C(=O)Nc1ccc(C(=O)NCC2CC2NC(=O)[C@@H]2C[C@@H](O)CN2)c(Cl)c1` (stereo partly drawn) [Example Z36, 5-[1-(5-amino-2-pyridyl)-3-(trifluoromethyl)pyrazol-4-yl]-N-[3-chloro-4-[[2-[[(2S,4R)-4-hydroxyprolyl]amino]cyclopropyl]methylcarbamoyl]phenyl]-1-methyl-imidazole-2-carboxamide], for which the IC90 amounted to 1180 nM.
Still for that read-out and setting: the figure for `Cn1c(-c2cn(-c3ccc(N)cn3)nc2C(F)(F)F)cnc1C(=O)Nc1ccc(C(=O)N2CCN(C(=O)C3(O)CCNCC3)CC2)c(Cl)c1` [Example C4, 5-[1-(5-amino-2-pyridyl)-3-(trifluoromethyl)pyrazol-4-yl]-N-[3-chloro-4-[4-(4-hydroxypiperidine-4-carbonyl)piperazine-1-carbonyl]phenyl]-1-methyl-imidazole-2-carboxamide] is 310 nM; for `Cn1c(-c2cn(-c3ccc(N)cn3)nc2C(F)(F)F)cnc1C(=O)Nc1ccc(C(=O)N2CCNCC23CC3)c(Cl)c1` [Example Z67, 5-[1-(5-amino-2-pyridyl)-3-(trifluoromethyl)pyrazol-4-yl]-N-[3-chloro-4-(4,7-diazaspiro[2.5]octane-4-carbonyl)phenyl]-1-methyl-imidazole-2-carboxamide] it is 890 nM; for `Cn1c(-c2cn(-c3ccncc3)nc2C(F)(F)F)cnc1C(=O)Nc1ccc(C(=O)N2CCN(C(=O)C3CCNCC3)CC2)c(Cl)c1` [Example A2, N-[3-chloro-4-[4-(piperidine-4-carbonyl)piperazine-1-carbonyl]phenyl]-1-methyl-5-[1-(4-pyridyl)-3-(trifluoromethyl)pyrazol-4-yl]imidazole-2-carboxamide] it is 710 nM.
Same read-out and setting: next, `Cn1c(-c2cn(-c3nccc(OCCN)n3)nc2C(F)(F)F)cnc1C(=O)Nc1ccc(C(=O)N2CCN(C(=O)C3CCNCC3)CC2)c(Cl)c1` [Example A14, 5-[1-[4-(2-aminoethoxy)pyrimidin-2-yl]-3-(trifluoromethyl)pyrazol-4-yl]-N-[3-chloro-4-[4-(piperidine-4-carbonyl)piperazine-1-carbonyl]phenyl]-1-methyl-imidazole-2-carboxamide]: 2200 nM; `CNC1CCN(C(=O)c2ccc(NC(=O)c3ncc(-c4cn(-c5ccc(N)cn5)nc4C(F)(F)F)n3C)cc2Cl)CC1` [Example Z4, 5-[1-(5-amino-2-pyridyl)-3-(trifluoromethyl)pyrazol-4-yl]-N-[3-chloro-4-[4-(methylamino)piperidine-1-carbonyl]phenyl]-1-methyl-imidazole-2-carboxamide]: 220 nM.
Same read-out and setting: the figure for `Cc1c[nH]nc1-n1cc(-c2cnc(C(=O)Nc3ccc(C(=O)N4CCN(C(=O)C5CCN(C)CC5)CC4)c(Cl)c3)n2C)c(C(F)(F)F)n1` [Example C15, N-[3-chloro-4-[4-(1-methylpiperidine-4-carbonyl)piperazine-1-carbonyl]phenyl]-1-methyl-5-[1-(4-methyl-1H-pyrazol-3-yl)-3-(trifluoromethyl)pyrazol-4-yl]imidazole-2-carboxamide] is 910 nM; for `Cn1c(-c2cn(-c3ccc(N)cn3)nc2C(F)(F)F)cnc1C(=O)Nc1ccc(C(=O)N2C[C@H]3CN[C@H]3C2)c(Cl)c1` [Example Z70, 5-[1-(5-amino-2-pyridyl)-3-(trifluoromethyl)pyrazol-4-yl]-N-[3-chloro-4-[(1R,5R)-3,6-diazabicyclo[3.2.0]heptane-3-carbonyl]phenyl]-1-methyl-imidazole-2-carboxamide] it is 1370 nM.
